This note sets out measurements from PMC10132233 (Journal of Enzyme Inhibition and Medicinal Chemistry, 2023).

The subject of data set [1] is 22RV1 prostate carcinoma cell line. The experiment in a line: MTT cytotoxicity assay, 22RV1. The settings on record: Homo sapiens, 24 h. Format: cell-based. The text has this: (§1) Accordingly, we aimed to investigate the cytotoxic potential of this new series against prostate carcinoma cell lines. […] The potent nanomolar cell-based activity of this series of compounds over the tested prostate carcinoma cell line could be attributed to other possible targets in addition to EGFR and HER2 receptors. The presence of the 2-nitroimidazole moiety in the chemical structure of compounds 9a–h could develop possible covalent bonds between the nitroimidazole moiety and some cellular proteins.
(§2) Prostate cancer cell lines (PC3 and 22RV1) of American Type Culture Collection (ATCC) were obtained from Korean Cell Center (KCL). PC3 and 22RV1 cell lines were cultured in Roswell Park Memorial Institute Medium (RPMI) 1640 and Dulbecco’s modified Eagle’s medium (DMEM) (GenDepot, Barker, TX) supplemented with 1% penicillin–streptomycin and 10% foetal bovine serum (FBS). The cells were maintained at 37 °C in a 5% CO2 with a 95% humid atmosphere.
(§3) To further analyse the intracellular cytotoxicity effect of the as-synthesised compounds, MTT assay was performed. Moreover, the experiments were divided into subcategories. In each group, cancer cells were first seeded in 96-well plates (4 × 10^4 cells per well) and then incubated for 24 h at 37 °C in a 5% CO2-containing atmosphere. Subsequently, the medium from the culture plate was removed, and 100 µL of RPMI media containing different concentrations of compounds (0.01, 0.005, 0.0025, 0.00125, and 0.000625 µM) were then added into the cell lines in each well and incubated for 24 h in a 5% CO2 humidified incubator at 37 °C. Afterwards, MTT solution (150 μL, 1 mg/mL) was added to each well, replacing the media-containing compounds. After 4 h of incubation, the MTT reagent was removed, and 200 μL of DMSO was then added to dissolve the formazan crystals, and colour intensity was measured at a wavelength of 540 nm using a BioTek Synergy H1 instrument (BioTek, Winooski, VT). IC50 was calculated according to the equation of Boltzmann sigmoidal concentration–response curve using Graph Pad Prism 5 (La Jolla, CA).

For data set [2], the target named is EGFR (Homo sapiens, UniProt P00533). In words: HotSpot kinase assay over EGFR (Reaction Biology). The settings on record: read-out: % kinase inhibition EGFR.
EGFR, sequence (P00533 25-1210): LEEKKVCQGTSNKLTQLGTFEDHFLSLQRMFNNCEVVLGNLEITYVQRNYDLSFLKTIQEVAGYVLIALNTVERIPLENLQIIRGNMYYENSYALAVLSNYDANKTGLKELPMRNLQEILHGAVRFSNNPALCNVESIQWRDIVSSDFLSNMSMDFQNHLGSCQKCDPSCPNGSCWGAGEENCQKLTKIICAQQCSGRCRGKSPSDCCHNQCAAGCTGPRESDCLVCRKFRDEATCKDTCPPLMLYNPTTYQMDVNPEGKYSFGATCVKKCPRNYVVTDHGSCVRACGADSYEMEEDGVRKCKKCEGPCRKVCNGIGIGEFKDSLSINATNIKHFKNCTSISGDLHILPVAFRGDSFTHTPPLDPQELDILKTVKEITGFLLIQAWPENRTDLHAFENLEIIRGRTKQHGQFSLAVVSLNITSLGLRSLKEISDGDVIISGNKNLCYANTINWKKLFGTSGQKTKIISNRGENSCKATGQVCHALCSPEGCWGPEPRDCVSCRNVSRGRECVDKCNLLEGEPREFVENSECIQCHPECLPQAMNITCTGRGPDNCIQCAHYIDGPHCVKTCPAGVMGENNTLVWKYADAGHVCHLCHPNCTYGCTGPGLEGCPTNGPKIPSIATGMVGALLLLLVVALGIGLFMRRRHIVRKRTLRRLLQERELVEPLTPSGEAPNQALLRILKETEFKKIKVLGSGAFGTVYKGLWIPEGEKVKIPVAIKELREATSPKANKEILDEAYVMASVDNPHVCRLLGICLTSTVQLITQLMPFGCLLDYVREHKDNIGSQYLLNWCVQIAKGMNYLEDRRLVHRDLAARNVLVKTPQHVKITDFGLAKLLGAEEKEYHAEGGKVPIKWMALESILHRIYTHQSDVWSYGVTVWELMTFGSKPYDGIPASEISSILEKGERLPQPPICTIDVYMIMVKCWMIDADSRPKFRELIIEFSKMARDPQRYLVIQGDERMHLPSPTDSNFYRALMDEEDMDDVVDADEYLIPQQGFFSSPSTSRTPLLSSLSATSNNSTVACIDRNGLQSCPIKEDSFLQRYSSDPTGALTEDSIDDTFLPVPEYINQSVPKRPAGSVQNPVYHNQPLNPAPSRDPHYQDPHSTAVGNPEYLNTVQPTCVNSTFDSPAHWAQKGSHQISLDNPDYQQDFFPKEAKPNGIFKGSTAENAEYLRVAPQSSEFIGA
The test system of data set [3] is PC3 prostate carcinoma cell line. The experiment in a line: MTT cytotoxicity assay, PC3. Format: cell-based. The note with it: Homo sapiens, 24 h.
From the text: as §1, §2, §3
(In general: Tetrazolium dyes change colour on reduction, which living cells bring about.)

Data set [4] deals with HER2 (Homo sapiens, UniProt P04626). The experiment in a line: HotSpot kinase assay over HER2 (Reaction Biology). The note with it: read-out: % kinase inhibition HER2.
HER2, sequence (P04626 23-1255): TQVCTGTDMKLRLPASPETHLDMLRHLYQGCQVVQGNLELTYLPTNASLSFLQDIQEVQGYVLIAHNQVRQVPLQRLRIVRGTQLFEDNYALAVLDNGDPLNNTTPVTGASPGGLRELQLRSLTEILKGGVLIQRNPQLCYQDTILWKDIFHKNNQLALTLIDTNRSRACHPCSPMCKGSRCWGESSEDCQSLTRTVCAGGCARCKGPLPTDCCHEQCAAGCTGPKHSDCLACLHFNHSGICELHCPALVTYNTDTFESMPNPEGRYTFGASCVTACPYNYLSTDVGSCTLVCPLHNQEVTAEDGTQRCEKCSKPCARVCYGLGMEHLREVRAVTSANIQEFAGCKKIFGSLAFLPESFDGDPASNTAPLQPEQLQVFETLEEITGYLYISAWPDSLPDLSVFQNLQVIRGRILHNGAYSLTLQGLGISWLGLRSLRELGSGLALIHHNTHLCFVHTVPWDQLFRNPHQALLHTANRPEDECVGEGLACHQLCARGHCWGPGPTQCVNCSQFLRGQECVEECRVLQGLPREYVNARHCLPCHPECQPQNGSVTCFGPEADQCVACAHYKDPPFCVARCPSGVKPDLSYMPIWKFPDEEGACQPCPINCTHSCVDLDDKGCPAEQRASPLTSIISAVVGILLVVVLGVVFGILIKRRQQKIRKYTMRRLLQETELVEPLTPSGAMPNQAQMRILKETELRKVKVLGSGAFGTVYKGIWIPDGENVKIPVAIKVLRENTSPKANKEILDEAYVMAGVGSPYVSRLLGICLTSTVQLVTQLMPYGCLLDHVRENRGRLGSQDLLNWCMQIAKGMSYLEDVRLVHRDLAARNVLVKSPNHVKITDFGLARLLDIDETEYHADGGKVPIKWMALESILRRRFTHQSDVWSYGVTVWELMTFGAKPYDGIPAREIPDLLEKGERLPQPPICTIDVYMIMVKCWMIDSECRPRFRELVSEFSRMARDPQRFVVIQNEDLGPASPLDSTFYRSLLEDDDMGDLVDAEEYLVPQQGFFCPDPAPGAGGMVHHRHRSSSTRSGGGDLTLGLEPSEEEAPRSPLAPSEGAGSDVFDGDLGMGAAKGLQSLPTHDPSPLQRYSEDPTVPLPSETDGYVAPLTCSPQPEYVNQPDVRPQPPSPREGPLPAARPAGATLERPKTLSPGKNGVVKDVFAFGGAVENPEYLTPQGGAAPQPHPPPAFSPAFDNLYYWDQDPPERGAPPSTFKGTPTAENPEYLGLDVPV

On to `COc1cc2ncnc(Nc3ccc(Oc4ccc(Cl)c(Cl)c4)c(Cl)c3)c2cc1OCCCn1ccnc1[N+](=O)[O-]` [Compound 9a, N-(3-Chloro-4-(3,4-dichlorophenoxy)phenyl)-7-methoxy-6-(3-(2-nitro-1H-imidazol-1-yl)propoxy)quinazolin-4-amine], for which the melting point (in general, the temperature of the solid-liquid transition) lay in the range of 237 to 238 °C. Besides, in data set [1], the half-maximal inhibitory concentration (IC50) (in general, the concentration that inhibits the measured activity by half) came out at 2.3 nM. Also, the inhibition (as a rule, the share of the control response that was lost under treatment) at 10 µM in data set [2] came out at 89%. In addition, the half-maximal inhibitory concentration (IC50) in data set [3] was found to be 6.1 nM. In addition, the inhibition at 10 µM in data set [4] is 69.8%.

For `COc1cc2ncnc(Nc3ccc(Oc4ccc(Cl)c(Cl)c4)c(Cl)c3)c2cc1OCCCCn1ccnc1[N+](=O)[O-]` [Compound 9b, N-(3-Chloro-4-(3,4-dichlorophenoxy)phenyl)-7-methoxy-6-(4-(2-nitro-1H-imidazol-1-yl)butoxy)quinazolin-4-amine], the melting point lay in the range of 101 to 102 °C. Moreover, the half-maximal inhibitory concentration (IC50) in data set [1] is 2 nM. Moreover, the inhibition at 10 µM in data set [2] is 94.2%. Moreover, the concentration for half-maximal inhibition (IC50) in data set [3] amounted to 3.1 nM. In addition, in data set [4], the inhibition at 10 µM was determined as 80.3%.

With `COc1cc2ncnc(Nc3ccc(Oc4ccc(Cl)c(Cl)c4)c(Cl)c3)c2cc1OCCCCCn1ccnc1[N+](=O)[O-]` [Compound 9c, N-(3-Chloro-4-(3,4-dichlorophenoxy)phenyl)-7-methoxy-6-((5-(2-nitro-1H-imidazol-1-yl)pentyl)oxy)quinazolin-4-amine], the melting point lay in the range of 94 to 95 °C. Besides, in data set [1], the IC50 stood at 1.9 nM. Besides, the inhibition at 10 µM in data set [2] came out at 90%. Besides, in data set [3], the half-maximal inhibitory concentration (IC50) came to 3.3 nM. In data set [4], the inhibition at 10 µM worked out at 78.6%.

In turn, `COc1cc2ncnc(Nc3ccc(Oc4ccc(Cl)c(Cl)c4)c(Cl)c3)c2cc1OCCCCCCn1ccnc1[N+](=O)[O-]` [Compound 9d, N-(3-Chloro-4-(3,4-dichlorophenoxy)phenyl)-7-methoxy-6-((6-(2-nitro-1H-imidazol-1-yl)hexyl)oxy)quinazolin-4-amine] came in with a melting point of 90 to 91 °C. Besides, in data set [1], the IC50 was found to be 2.8 nM. Also, the inhibition at 10 µM in data set [2] turned out to be 88.9%. For the same compound, the half-maximal inhibitory concentration (IC50) in data set [3] worked out at 2.1 nM. The inhibition at 10 µM in data set [4] is 72.1%.

In the case of `COc1cc2ncnc(Nc3ccc(Oc4cccc(C(F)(F)F)c4)c(Cl)c3)c2cc1OCCCn1ccnc1[N+](=O)[O-]` [Compound 9e, N-(3-Chloro-4-(3-(trifluoromethyl)phenoxy)phenyl)-7-methoxy-6-(3-(2-nitro-1H-imidazol-1-yl)propoxy)quinazolin-4-amine], the melting point is 232 to 233 °C. Moreover, the IC50 in data set [1] is 0.8 nM. The inhibition at 10 µM in data set [2] amounted to 98.9%. Besides, in data set [3], the IC50 is 7.3 nM. In data set [4], the inhibition at 10 µM was 81.7%.

For `COc1cc2ncnc(Nc3ccc(Oc4cccc(C(F)(F)F)c4)c(Cl)c3)c2cc1OCCCCCn1ccnc1[N+](=O)[O-]` [Compound 9g, N-(3-Chloro-4-(3-(trifluoromethyl)phenoxy)phenyl)-7-methoxy-6-((5-(2-nitro-1H-imidazol-1-yl)pentyl)oxy)quinazolin-4-amine], the melting point fell in the range of 90 to 91 °C. For the same compound, the IC50 in data set [1] came out at 1.3 nM. In addition, the inhibition at 10 µM in data set [2] was 99.2%. Besides, the concentration for half-maximal inhibition (IC50) in data set [3] was 4.6 nM. Further, in data set [4], the inhibition at 10 µM was found to be 96.2%.

`COc1cc2ncnc(Nc3ccc(Oc4cccc(C(F)(F)F)c4)c(Cl)c3)c2cc1OCCCCCCn1ccnc1[N+](=O)[O-]` [Compound 9h, N-(3-Chloro-4-(3-(trifluoromethyl)phenoxy)phenyl)-7-methoxy-6-((6-(2-nitro-1H-imidazol-1-yl)hexyl)oxy)quinazolin-4-amine] showed a melting point of 84 to 85 °C. The concentration for half-maximal inhibition (IC50) in data set [1] was 1.1 nM. In data set [2], the inhibition at 10 µM amounted to 96.8%. For the same compound, the IC50 in data set [3] came out at 5.6 nM. The inhibition at 10 µM in data set [4] was determined as 97%.
